Data taken from patent US9073858B2, “Methods of targeted drug development” (priority 2010, dated 2015).
pIC50: −log10 of the molar value. Read-outs that look alike come from different tables or passages of the source.

What was measured:
[1] = Stability on incubation with mouse liver microsomes (MLM); assay type: in vitro ADME; details: percentage left after incubation with mouse liver microsomes for 30 minutes
Method: (§1) Stability of hydroxyquinoline analogs were determined (see e.g., TABLE 18). MLM represents the percentage left after incubation with mouse liver microsomes for 30 minutes. HLM represents the percentage left after incubation with human liver microsomes for 30 minutes.
(§2) Stability of analogs having a benzaldehyde derived ring were determined (see e.g., TABLE 18). MLM represents the percentage left after incubation with mouse liver microsomes for 30 minutes. HLM represents the percentage left after incubation with human liver microsomes for 30 minutes.

[2] = Stability on incubation with human liver microsomes (HLM); assay type: in vitro ADME; details: percentage left after incubation with human liver microsomes for 30 minutes
Method: as §1, §2

EGFR = molecular target: T1, EGFR (Homo sapiens, UniProt P00533); test: EGFR in-cell Western (ICW) screening protocol; assay type: cell-based; parameters: unit not given here; details: for ICW Screen: initial screen
T1 construct: endogenous in cells; host or cells: A431 cells (ATCC CRL-1555)
Outline: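 Serum-starved cells treated with compound 4 h at 37 °C, then stimulated with EGF (20 or 0 ng/ml solution added) in its continued presence. In-cell Western on fixed cells: phospho-EGFR (800 channel) normalised to total EGFR (700 channel), % inhibition calculated against EGF-stimulated and unstimulated no-compound wells.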

[3] = test system: epithelial carcinoma A431 cell line; test: MTT Cell Proliferation Assay, A431 cell line; assay type: cell-based; details: for MTT-72 h A431/MDBK (ratio): numerically MDBK value over A431 value
Outline: (§3)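 Cells plated overnight, then exposed 3 days at 37 °C, 5% CO2 to compound in growth medium with 0.5% FBS and 0.5% DMSO final (0.5% DMSO as control).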

MDBK line = test: MTT Cell Proliferation Assay, MDBK line; assay type: cell-based, bovine; details: Bos taurus, MDBK
Outline: as §3

[4] = Homo sapiens, A-431, 72 h, 72 h, first value of A431/MDBK pair, read-out: MTT-72 h A431
[5] = 72 h, second value of A431/MDBK pair, read-out: MTT-72 h MDBK

T1 sequence (P00533 25-1210): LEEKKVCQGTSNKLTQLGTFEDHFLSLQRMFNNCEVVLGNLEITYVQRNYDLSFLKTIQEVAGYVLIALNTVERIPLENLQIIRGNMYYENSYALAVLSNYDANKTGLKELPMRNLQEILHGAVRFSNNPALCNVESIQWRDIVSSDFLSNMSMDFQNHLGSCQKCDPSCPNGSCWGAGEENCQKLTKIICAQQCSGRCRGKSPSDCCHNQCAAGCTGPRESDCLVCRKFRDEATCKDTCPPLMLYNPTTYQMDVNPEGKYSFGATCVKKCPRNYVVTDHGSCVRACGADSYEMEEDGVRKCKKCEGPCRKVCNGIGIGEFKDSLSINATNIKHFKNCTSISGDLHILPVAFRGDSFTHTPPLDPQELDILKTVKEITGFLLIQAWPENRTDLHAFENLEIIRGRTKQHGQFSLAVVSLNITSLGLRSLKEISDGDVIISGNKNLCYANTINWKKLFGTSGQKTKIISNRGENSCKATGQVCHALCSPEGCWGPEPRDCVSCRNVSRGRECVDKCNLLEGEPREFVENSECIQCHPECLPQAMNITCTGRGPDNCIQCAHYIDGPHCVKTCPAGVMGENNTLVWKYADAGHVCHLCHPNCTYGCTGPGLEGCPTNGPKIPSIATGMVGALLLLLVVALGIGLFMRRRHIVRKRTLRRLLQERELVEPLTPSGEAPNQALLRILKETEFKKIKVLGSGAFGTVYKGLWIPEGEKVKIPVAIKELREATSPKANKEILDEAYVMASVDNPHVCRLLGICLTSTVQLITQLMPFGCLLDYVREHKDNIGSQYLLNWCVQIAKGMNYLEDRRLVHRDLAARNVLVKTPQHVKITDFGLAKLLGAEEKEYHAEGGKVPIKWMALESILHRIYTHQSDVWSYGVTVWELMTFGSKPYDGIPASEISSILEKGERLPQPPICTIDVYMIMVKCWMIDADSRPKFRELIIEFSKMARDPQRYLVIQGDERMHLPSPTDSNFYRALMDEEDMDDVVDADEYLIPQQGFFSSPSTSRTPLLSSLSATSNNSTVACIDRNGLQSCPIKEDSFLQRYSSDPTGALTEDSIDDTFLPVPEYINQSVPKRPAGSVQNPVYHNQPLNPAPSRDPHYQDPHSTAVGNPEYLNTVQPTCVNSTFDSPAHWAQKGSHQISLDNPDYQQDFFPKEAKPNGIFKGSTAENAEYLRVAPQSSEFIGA

Structure (SMILES) | MLM % Remaining@ 30 Min [1] [%] | HLM % Remaining@ 30 Min [2] [%] | ICW Screen (EGFR) | ICW Re-Test (EGFR) | MTT-72 h A431/MDBK (ratio) ([3]; 72 h, value in brackets) | pIC50 [3, 4] | pIC50 (MDBK line; [5]) | also measured
Cc1cccc(NC(c2ccc(OC(F)(F)F)cc2)c2ccc3cccnc3c2O)n1 (stereo not drawn) [AD4-12902] | 17 | 72 |  |  |  |  |  | 
Cc1cccc(NC(c2cccc(C(F)(F)F)c2)c2ccc3cccnc3c2O)n1 (stereo not drawn) [AD4-12903] | 18 | 46 |  |  |  |  |  | 
Cc1cccc(NC(c2cccc(Cl)c2Cl)c2ccc3cccnc3c2O)n1 (stereo not drawn) [AD4-12905] | 23 | 63 |  |  |  |  |  | 
Cc1ccnc(NC(c2ccccc2Cl)c2ccc3cccnc3c2O)c1 (stereo not drawn) [AD4-12907] | 5 | 14 |  |  |  |  |  | 
Oc1c(C(Nc2cccnc2)c2cccc(Cl)c2Cl)ccc2cccnc12 (stereo not drawn) [AD4-12908] | 6 | 48 |  |  |  |  |  | 
COc1ccc(C(Nc2cccc(C)n2)c2ccc3cccnc3c2O)cc1O (stereo not drawn) [AD4-12909] | 13 | 50 |  |  |  |  |  | 
Cc1cccc(NC(c2ccc(Cl)cc2Cl)c2ccc3cccnc3c2O)n1 (stereo not drawn) [AD4-12911] | 17 | 57 |  |  |  |  |  | 
Cc1ccnc(NC(c2ccc(Cl)cc2Cl)c2ccc3cccnc3c2O)c1 (stereo not drawn) [AD4-12912] | 10 | 38 |  |  |  |  |  | 
Cc1cccc(NC(c2cc(Cl)cc(Cl)c2)c2ccc3cccnc3c2O)n1 (stereo not drawn) [AD4-12913] | 41 | 61 |  |  |  |  |  | 
Cc1ccnc(NC(c2cc(Cl)cc(Cl)c2)c2ccc3cccnc3c2O)c1 (stereo not drawn) [AD4-12915] | 25 | 71 |  |  |  |  |  | 
Cc1cccc(NC(c2ccc(Cl)c(Cl)c2)c2ccc3cccnc3c2O)n1 (stereo not drawn) [AD4-12916] | 26 | 80 |  |  |  |  |  | 
Cc1ccnc(NC(c2ccc(Cl)c(Cl)c2)c2ccc3cccnc3c2O)c1 (stereo not drawn) [AD4-12917] | 11 | 53 |  |  |  |  |  | 
Cc1cccc(NC(c2ccc3cccnc3c2O)c2c(F)c(F)cc(F)c2F)n1 (stereo not drawn) [AD4-12918] | 15 | 51 |  |  |  |  |  | 
Cc1cccc(NC(c2cc(Cl)ccc2Cl)c2ccc3cccnc3c2O)n1 (stereo not drawn) [AD4-12955] | 41 | 61 |  |  |  |  |  | 
Cc1cccc(NC(c2ccc3cccnc3c2O)c2c(F)cccc2Cl)n1 (stereo not drawn) [AD4-12959] | 15 | 42 |  |  |  |  |  | 
Cc1cccc(NC(c2ccc(C)c(F)c2F)c2ccc3ccc(C)nc3c2O)n1 (stereo not drawn) [AD4-13022] | 5 | 36 |  |  |  |  |  | 
Cc1cccc(NC(c2cc(Cl)cc(Cl)c2Cl)c2ccc3cccnc3c2O)n1 (stereo not drawn) [AD4-13023] | 60 | 95 |  |  |  |  |  | 
Cc1cccc(NC(c2cccnc2)c2ccc3cccnc3c2O)n1 (stereo not drawn) [compound 10975] |  |  | 53.5 | 34.86 | 0.68 | 4.28 | 4.45 | 

Structure (SMILES) | MLM % Remaining@ 30 Min [1] [%] | HLM % Remaining@ 30 Min [2] [%] | ICW Screen (EGFR) | ICW Re-Test (EGFR) | MTT-72 h A431/MDBK (ratio) ([3]; 72 h, value in brackets) | pIC50 [3, 4] | pIC50 (MDBK line; [5]) | also measured
Cc1cccc(NC(c2cccc(C)n2)c2ccc3ccc(C)nc3c2O)n1 (stereo not drawn) [compound 10976] |  |  | 33.22 | 21.78 | 0.78 | 4.60 | 4.71 | 
CCOc1ccc(NC(c2ccccn2)c2ccc3cccnc3c2O)cc1 (stereo not drawn) [compound 11000] |  |  | 27.62 |  | 0.99 |  | 4.95 | pIC50 ([3]; 72 h, first value of A431/MDBK pair, read-out: MTT-72 h A431): 4.94
COc1ccc(C)cc1NC(c1ccc(F)cc1)c1ccc2cccnc2c1O (stereo not drawn) [compound 11014] |  |  | 47.81 | 32.53 | 0.92 | 5.33 | 5.36 | 
COC(=O)c1ccc(NC(c2cccs2)c2ccc3cccnc3c2O)cc1 (stereo not drawn) [compound 11015] |  |  | 64.21 | 57.97 | 0.76 | 5.29 | 5.41 | 
CC(=O)Nc1ccc(NC(c2ccccn2)c2ccc3cccnc3c2O)cc1 (stereo not drawn) [compound 11017] |  |  | 25.07 |  | 0.83 | 4.93 | 5.02 | 
Oc1c(C(Nc2ccccc2)c2ccccn2)ccc2cccnc12 (stereo not drawn) [compound 11018] |  |  | 25.31 | 21.62 | 0.89 | 5.04 | 5.09 | 
Oc1c(C(Nc2cccc(Cl)c2)c2ccncc2)ccc2cccnc12 (stereo not drawn) [compound 11042] |  |  | 53.72 | 71.32 | 1.06 | 5.41 | 5.43 | 
O=[N+]([O-])c1cccc(NC(c2ccco2)c2ccc3cccnc3c2O)c1 (stereo not drawn) [compound 11056] |  |  | 32.48 | 18.32 | 0.94 | 5.20 | 5.23 | 
Oc1c(C(Nc2cccc(Cl)c2)c2cccnc2)ccc2cccnc12 (stereo not drawn) [compound 11057] |  |  | 44.4 | 73.29 | 0.98 | 5.10 | 5.10 | 
Oc1c(C(Nc2ccc(OC(F)F)cc2)c2ccccn2)ccc2cccnc12 (stereo not drawn) [compound 11072] |  |  | 44.06 | 36.82 | 0.49 | 4.36 | 4.68 | MTT-72 h % Max ([3]; 72 h, maximal effect printed after the ratio): 12%
COc1ccccc1NC(c1cccnc1)c1ccc2cccnc2c1O (stereo not drawn) [compound 11102] |  |  | 44.31 | 39.06 | 1.04 | 5.13 | 5.12 | 
COc1ccc(NC(c2ccccn2)c2ccc3cccnc3c2O)cc1 (stereo not drawn) [compound 11103] |  |  | 50.55 | 45.86 | 1.75 | 4.68 | 4.44 | 
Oc1c(C(Nc2cccc(F)c2)c2ccccn2)ccc2cccnc12 (stereo not drawn) [compound 11105] |  |  | 48.25 | 17.88 | 1.29 | 5.26 | 5.15 | MTT (10 Point follow-up) ratio ([3]; 10 point follow-up, value in brackets, numerically MDBK over A431): 1.38; pIC50 ([3]; Homo sapiens, A-431, 10 point follow-up, first value of pair, read-out: MTT (10 Point follow-up) A431): 5.33; pIC50 (MDBK line; 10 point follow-up, second value of pair, read-out: MTT (10 Point follow-up) MDBK): 5.19
Oc1ccccc1NC(c1cccnc1)c1ccc2cccnc2c1O (stereo not drawn) [compound 11151] |  |  | 35.56 | 45.66 | 0.76 | 5.08 | 5.21 | 
COc1ccc(NC(c2cccnc2)c2ccc3cccnc3c2O)cc1 (stereo not drawn) [compound 11152] |  |  | 60.41 | 48.96 | 0.92 | 5.05 | 5.08 | 
Oc1c(C(Nc2ccc(F)cc2)c2ccncc2)ccc2cccnc12 (stereo not drawn) [compound 11153] |  |  | 28.24 | 20.64 | 0.43 | 4.88 | 5.25 | 
Fc1cccc(C(Nc2ccccn2)c2ccc3cccnc3c2)c1 (stereo not drawn) [compound 11191] |  |  | 40.32 | 22.02 | 0.99 | 5.25 | 5.26 | 
